According to patent US12384808B2, “Modulators of TNF-α activity” (Forward Therapeutics, Inc., priority 2022, dated 2025):

Biological target: TNFα (Homo sapiens, UniProt P01375)
Test: TNFα Induced HEK Blue Cellular Assay
Assay type: cell-based
Settings: HEK Blue TNFα reporter cells, TNFα 100 pg/ml, 24 hrs at 37° C., secreted alkaline phosphatase (QUANTI-Blue) read at 620 nm; read-out: IC50 value
Experimental: TNFα Induced HEK Blue Cellular Assay
Test articles were diluted in DMSO and serially diluted into 384 well assay plate (Corning 3765), at final concentrations ranging from […] to 0.5 nM. HEK Blue™ TNFα reporter cells were added at a final density of 10,000 cell per well in assay media [DMEM (Gibco, cat #21063-029), 10% fetal bovine serum (ExcelBio, cat #FND500), 1% Penicillin-Streptomycin (Solarbio, cat #P1400-100]. TNFα (R&D 210-TA-020/CF) was then added to the assay plate at a final concentration of 100 pg/ml. This plate was then incubated for 24 hrs at 37° C. and 5% CO2. Secreted alkaline phosphatase expression was then measured using QUANTI-Blue™ (Invivogen), according to manufacturer instructions and read on an Envision microplate reader at 620 nm.
Inhibition data for test compound over a range of concentration was plotted as percentage inhibition of the test compound (100%=maximum inhibition). IC50 values were determined after correcting for background [(sample read−mean of low control)/(mean of high control−mean of low control)] where by the low control is DMSO without stimulation and high control is DMSO with stimulation. The IC50 is defined as the concentration of test compound which produces 50% inhibition and was quantified using the 4 parameter logistic equation to fit the data.

Chain of TNFα (P01375 77-233 limits assumed): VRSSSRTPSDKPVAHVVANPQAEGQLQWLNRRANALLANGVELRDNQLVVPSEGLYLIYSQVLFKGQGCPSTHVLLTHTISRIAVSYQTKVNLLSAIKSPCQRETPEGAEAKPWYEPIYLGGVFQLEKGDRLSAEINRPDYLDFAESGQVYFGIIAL

CN1C(=O)c2cccc(OC(F)F)c2[C@H]2C[C@@H]1c1nc3ccc(-c4cnc(P(C)(C)=O)nc4)cc3n12 [Example 8, (1R,11R)-18-(difluoromethoxy)-5-[2-(dimethylphosphoryl)pyrimidin-5-yl]-12-methyl-2,9,12-triazapentacyclo[9.8.1.0^{2,10}.0^{3,8}.0^{14,19}]icosa-3(8),4,6,9,14(19),15,17-heptaen-13-one] and CN1C(=O)c2cccc(OC(F)F)c2[C@H]2C[C@@H]1c1nc3ccc(-c4cnc(OCP(C)(C)=O)nc4)cc3n12 [Example 9, (1R,11R)-18-(difluoromethoxy)-5-{2-[(dimethylphosphoryl)methoxy]pyrimidin-5-yl}-12-methyl-2,9,12-triazapentacyclo[9.8.1.0^{2,10}.0^{3,8}.0^{14,19}]icosa-3(8),4,6,9,14(19),15,17-heptaen-13-one] fall in the same range of IC50: 100 to 1000 nM for the first, 100 to 1000 nM for the second.

CN1C(=O)c2cccc(OC(F)F)c2[C@H]2C[C@@H]1c1nc3ccc(-c4cnc(OCP(C)(C)=O)c(F)c4)cc3n12 [Example 10, (1R,11R)-18-(difluoromethoxy)-5-{6-[(dimethylphosphoryl)methoxy]-5-fluoropyridin-3-yl}-12-methyl-2,9,12-triazapentacyclo [9.8.1.0^{2,10}.0^{3,8}.0^{14,19}]icosa-3(8),4,6,9,14(19),15,17-heptaen-13-one] and CN1C(=O)c2cccc(OC(F)F)c2[C@H]2C[C@@H]1c1nc3ccc(-c4cnc(NCP(C)(C)=O)c(F)c4)cc3n12 [Example 16, (1R,11R)-18-(difluoromethoxy)-5-(6-{[(dimethylphosphoryl)methyl]amino}-5-fluoropyridin-3-yl)-12-methyl-2,9,12-triazapentacyclo[9.8.1.0^{2,10}.0^{3,8}.0^{14,19}]icosa-3(8),4,6,9,14(19),15,17-heptaen-13-one] cannot be ordered by IC50: under 100 nM for the first, under 100 nM for the second.

CP(C)(=O)COc1ccc(-c2ccc3nc4n(c3c2)[C@@H]2C[C@H]4NC(=O)c3cccc(OC(F)F)c32)cn1 [Example 11, (1R,11R)-18-(difluoromethoxy)-5-{6-[(dimethylphosphoryl)methoxy]pyridin-3-yl}-2,9,12-triazapentacyclo[9.8.1.0^{2,10}.0^{3,8}.0^{14,19}]icosa-3(8),4,6,9,14(19),15,17-heptaen-13-one] and CP(C)(=O)COc1ncc(-c2ccc3nc4n(c3c2)[C@@H]2C[C@H]4NC(=O)c3cccc(OC(F)F)c32)cn1 [Example 12, (1R,11R)-18-(difluoromethoxy)-5-(2-[(dimethylphosphoryl)methoxy]pyrimidin-5-yl)-2,9,12-triazapentacyclo[9.8.1.0^{2,10}.0^{3,8}.0^{14,19}]icosa-3(8),4,6,9,14(19),15,17-heptaen-13-one] fall in the same range of IC50: 1000 to 10000 nM for the first, 1000 to 10000 nM for the second.

CN1C(=O)c2cccc(OC(F)F)c2[C@H]2C[C@@H]1c1nc3ccc(-c4ccc(P(C)(C)=O)cc4)cc3n12 [Example 13, (1R,11R)-18-(difluoromethoxy)-5-[4-(dimethylphosphoryl)phenyl]-12-methyl-2,9,12-triazapentacyclo[9.8.1.0^{2,10}.0^{3,8}.0^{14,19}]icosa-3(8),4,6,9,14(19),15,17-heptaen-13-one] and CN1C(=O)c2cccc(OC(F)F)c2[C@H]2C[C@@H]1c1nc3ccc(-c4ccc(P(C)(C)=O)c(F)c4)cc3n12 [Example 14, (1R,11R)-18-(difluoromethoxy)-5-[4-(dimethylphosphoryl)-3-fluorophenyl]-12-methyl-2,9,12-triazapentacyclo[9.8.1.0^{2,10}.0^{3,8}.0^{14,19}]icosa-3(8),4,6,9,14(19),15,17-heptaen-13-one] cannot be ordered by IC50: under 100 nM for the first, under 100 nM for the second.

[2H]C([2H])([2H])N1C(=O)c2cccc(OC(F)F)c2[C@H]2C[C@@H]1c1nc3ccc(-c4ccc(OCP(C)(C)=O)nc4)cc3n12 [Example 15, (7R,14R)-1-(difluoromethoxy)-11-(6-((dimethylphosphoryl)methoxy)pyridin-3-yl)-6-(methyl-d3)-6,7-dihydro-7,14-methanobenzo[f]benzo[4,5]imidazo[1,2-a][1,4]diazocin-5(14H)-one] and [2H]C([2H])([2H])N1C(=O)c2cccc(OC(F)F)c2[C@H]2C[C@@H]1c1nc3ccc(-c4ccc(P(C)(C)=O)nc4)cc3n12 [Example 17, (7R,14R)-1-(difluoromethoxy)-11-(6-(dimethylphosphoryl)pyridin-3-yl)-6-(methyl-d3)-6,7-dihydro-7,14-methanobenzo[f]benzo[4,5]imidazo[1,2-a][1,4]diazocin-5(14H)-one] cannot be ordered by IC50: under 100 nM for the first, under 100 nM for the second.

CN1C(=O)c2cccc(OC(F)F)c2[C@H]2C[C@@H]1c1nc3ccc(-c4ccc(OCP(C)(C)=O)c(F)c4)cc3n12 [Example 18, (1R,11R)-18-(difluoromethoxy)-5-{4-[(dimethylphosphoryl)methoxy]-3-fluorophenyl}-12-methyl-2,9,12-triazapentacyclo[9.8.1.0^{2,10}.0^{3,8}.0^{14,19}]icosa-3(8),4,6,9,14(19),15,17-heptaen-13-one] and CN1C(=O)c2cccc(OC(F)F)c2[C@H]2C[C@@H]1c1nc3ccc(-c4ccc(CP(C)(C)=O)nc4)cc3n12 [Example 22, (1R,11R)-18-(difluoromethoxy)-5-{6-[(dimethylphosphoryl)methyl]pyridin-3-yl}-12-methyl-2,9,12-triazapentacyclo[9.8.1.0^{2,10}.0^{3,8}.0^{14,19}]icosa-3(8),4,6,9,14(19),15,17-heptaen-13-one] cannot be ordered by IC50: under 100 nM for the first, under 100 nM for the second.

CCN1C(=O)c2cccc(OC(F)F)c2[C@H]2C[C@@H]1c1nc3ccc(-c4ccc(P(C)(C)=O)nc4)cc3n12 [Example 19, (1R,11R)-18-(difluoromethoxy)-5-[6-(dimethylphosphoryl)pyridin-3-yl]-12-ethyl-2,9,12-triazapentacyclo[9.8.1.0^{2,10}.0^{3,8}.0^{14,19}]icosa-3(8),4,6,9,14(19),15,17-heptaen-13-one] and CN1C(=O)c2cccc(OC(F)F)c2[C@H]2C[C@@H]1c1nc3ccc(-c4ccc(NCP(C)(C)=O)nc4)cc3n12 [Example 23, (1R,11R)-18-(difluoromethoxy)-5-(6-{[(dimethylphosphoryl)methyl]amino}pyridin-3-yl)-12-methyl-2,9,12-triazapentacyclo[9.8.1.0^{2,10}.0^{3,8}.0^{14,19}]icosa-3(8),4,6,9,14(19),15,17-heptaen-13-one] cannot be ordered by IC50: under 100 nM for the first, under 100 nM for the second.

Compared with CN1C(=O)c2cccc(OC(F)F)c2[C@H]2C[C@@H]1c1nc3ccc(-c4cnn(CP(C)(C)=O)c4)cc3n12 [Example 21, (1R,11R)-18-(difluoromethoxy)-5-{1-[(dimethylphosphoryl)methyl]pyrazol-4-yl}-12-methyl-2,9,12-triazapentacyclo[9.8.1.0^{2,10}.0^{3,8}.0^{14,19}]icosa-3(8),4,6,9,14(19),15,17-heptaen-13-one], [2H]C([2H])([2H])N1C(=O)c2cccc(OC(F)F)c2[C@H]2C[C@@H]1c1nc3ccc(-c4ccc(P(C)(C)=O)c(F)c4)cc3n12 [Example 24, (7R,14R)-1-(difluoromethoxy)-11-(4-(dimethylphosphoryl)-3-fluorophenyl)-6-(methyl-d3)-6,7-dihydro-7,14-methanobenzo[f]benzo[4,5]imidazo[1,2-a][1,4]diazocin-5(14H)-one] is lower in IC50: 100 to 1000 nM for the first, under 100 nM for the second. The second is the more potent here.
